In US4983740A, “Process for 1,4-dihydropyridine compounds” (Adir et Compagnie, priority 1986, dated 1991):
pIC50: −log10 of the molar value. Structures can show the parent of a compound that is named as a salt.

Key:
[1] = test system: rat aorta; experiment: In vitro activity in rat aorta stimulated by potassium ions; format: cell-based, rat (male Wistar); conditions: 1 h; rat aorta rings, KCl 80 mM stimulation, cumulative doses at 60 minutes intervals
Experimental: Determination of the Vitro Activity in Rat Aorta Stimulated by Potassium Ions
This trial was carried out using isolated organs removed from male Wistar rats weighing 300 to 400 g, kept under a water diet 18 hours before sacrificing.
After quickly sacrificing the animal, the aorta (at the level of the arch of the aorta) is removed and dissected into 2 mm-long rings; the endothelium is removed mechanically. After an equilibration period of 1 hour in a physiological solution consisting of (mM): NaCl 112, KCl 5, KH2 PO4 1, MgSO4 1.2, CaCl2 2.5, NaHCO3 25 and glucose 11.5, the preparations are stimulated with a potassium-rich solution. The latter consists of (mM):NaCl 37, KCl 80, KH2 PO4 1, MgSO4 1.2, CaCl2 2.5, NaHCO3 25 and glucose 11.5. This solution has a pH of 7.4 at 37° C.
After 15 minutes of stabilization, the compounds to be tested are then added (sample volume 0.2 ml) at cumulative doses at 60 minutes intervals. From the relaxation values obtained, it is possible to construct a doseresponse curve, leading to the calculation of an IC50 value (expressed in M).

[2] = test system: conscious spontaneous hypertensive rats (SHR); experiment: Short-term studies in conscious spontaneous hypertensive rats (oral, systolic arterial pressure); format: in vivo, rat (SHR); conditions: 3 mg/kg
Experimental: Short-term Studies in Conscious Spontaneous Hypertensive Rats (SHR)
Male spontaneous hypertensive rats weighing 270 to 320 g, aged 16 to 24 weeks, are anesthetized with ether. A polyethylene catheter is introduced into the femoral artery and moved forward to the level of the tail. The pressure in the femoral artery is recorded with a Statham® P23 sensor, on a Gould® 2400 recorder. The animals are treated at least one hour after the operation. The compounds are administered orally, in the dissolved form. The doses administered are expressed in mg/kg of base. The compounds of the invention were compared with amlodipine and with another 1,4-dihydropyridine derivative reference compound, nifedipine.

[3] = test system: conscious dogs with renal hypertension; experiment: Study in conscious dogs with renal hypertension (oral, mean arterial pressure); format: in vivo, dog (Mongol); conditions: digestive route
Description: Study in Conscious Dogs with Renal Hypertension
Mongol dogs weighing 20 to 25 kg are used. A Silastic® catheter, inserted under anesthesia at the level of the abdominal aorta, left in position permanently, enables the arterial pressure to be determined subsequently in the conscious animal.
Arterial hypertension is induced by a second operation, under anesthesia, consisting in constricting the left renal artery with a clip, decreasing the flow rate therein by approximately 70%, the left kidney is also covered with a latex capsule in order to restrict circulatory compensations; the contralateral kidney is left in position.
The systolic, diastolic and mean arterial pressures are determined with a Statham® P23 pressure sensor attached to the Silastic® catheter and connected to a Gould® "pressure-processor". The compounds are tested in animals which became hypertensive in the conscious state at least one week after the second operation. The arterial pressure is continuously recorded up to 7 hours after the treatment and then at 24 hours.
The compounds to be tested are administered by the digestive route through gastric tubing, in the form of a solution which may be aqueous, aqueous/alcoholic and the like, depending on the solubility of the products.
The doses administered are expressed in mg base per body weight kg.

[4] = test system: conscious spontaneous hypertensive rats (SHR); experiment: Long-term studies in conscious spontaneous hypertensive rats (oral, single daily dose, systolic arterial pressure); format: in vivo, rat (SHR); conditions: 1 mg/kg/d
Experimental: Long-term Studies in Conscious Spontaneous Hypertensive rats (SHR) Male rats weighing 280 to 300 g, aged 16 weeks, are used in this study. The systolic arterial pressure is determined with a Rhema multichannel 8,000® apparatus, according to the indirect method, at the tail of the animal. The compounds to be tested are administered orally, in a single daily dose. Determinations of arterial pressure are carried out each day just before the treatment. Amlodipine was also studied under the same conditions.

| SMILES | pIC50 [1] | Systolic arterial pressure after treatment, Δ mm Hg, 4 h [2] [mm Hg] | Systolic arterial pressure after treatment, Δ mm Hg, 6 h [2] [mm Hg] | Systolic arterial pressure after treatment, Δ mm Hg, 24 h [2] [mm Hg] | other results |
| --- | --- | --- | --- | --- | --- |
| CCOC(=O)C1=C(COCCOCCN)NC(C)=C(C(=O)OC)C1c1cccc2c1OCO2 (racemic) [EXAMPLE 2, (4R,S)-2-{[2-(2-Aminoethoxy)ethoxy]methyl}-3-ethoxycarbonyl-5-methoxycarbonyl-6-methyl-4-(2,3-methylenedioxyphenyl)-1,4-dihydropyridine] | 7.52 | -13 | -16 | – | – |
| CCOC(=O)C1=C(COCCOCCN)NC(C)=C(C(=O)OC)C1c1ccccc1Cl (racemic) [EXAMPLE 5, (4R,S)-2-{[2-(2-Aminoethoxy)ethoxy]methyl}-4-(2-chlorophenyl)-3-ethoxycarbonyl-5-methoxycarbonyl-6-methyl-1,4-dihydropyridine fumarate] | 7.19 | -49 | -49 | -22 | Mean arterial pressure after treatment, Δ mm Hg, 4 h ([3]; 0.5 mg/kg): -32 mm Hg; Mean arterial pressure after treatment, Δ mm Hg, 7 h ([3]; 0.5 mg/kg): -25 mm Hg; Mean arterial pressure after treatment, Δ mm Hg, 4 h ([3]; 1.0 mg/kg): -48 mm Hg; Mean arterial pressure after treatment, Δ mm Hg, 7 h ([3]; 1.0 mg/kg): -39 mm Hg; Mean arterial pressure after treatment, Δ mm Hg, 24 h ([3]; 1.0 mg/kg): -10 mm Hg |
| CCOC(=O)C1=C(COCCOCCN(C)Cc2ccccc2)NC(C)=C(C(=O)OC)C1c1ccccc1Cl (racemic) [EXAMPLE 7, (4R,S)-2-[{2-[2-(N-Methyl-N-benzylamino)ethoxy]ethoxy}-methyl]-4-(2-chlorophenyl)-3-ethoxycarbonyl-5-methoxycarbonyl-6-methyl-1,4-dihydropyridine tartrate] | 8.40 | -22 | -16 | -8 | Mean arterial pressure after treatment, Δ mm Hg, 4 h ([3]; 0.5 mg/kg): -7 mm Hg; Mean arterial pressure after treatment, Δ mm Hg, 7 h ([3]; 0.5 mg/kg): -3 mm Hg; Mean arterial pressure after treatment, Δ mm Hg, 24 h ([3]; 0.5 mg/kg): 0 mm Hg |
| C=CCN(CC=C)CCOCCOCC1=C(C(=O)OCC)C(c2ccccc2Cl)C(C(=O)OC)=C(C)N1 (racemic) [EXAMPLE 8, (4R,S)-4-(2-Chlorophenyl)-2-[{2-[2-(N,N-diallylamino)ethoxy]ethoxy}methyl]-3-ethoxycarbonyl-5-methoxycarbonyl-6-methyl-1,4-dihydropyridine hemifumarate] | 8.19 | -21 | -19 | – | – |
| CCOC(=O)C1=C(CCCCCCCN)NC(C)=C(C(=O)OC)C1c1ccccc1Cl (racemic) [EXAMPLE 12, (4R,S)-2-(7-Aminoheptyl)-4-(2-chlorophenyl)-3-ethoxycarbonyl-5-methoxycarbonyl-6-methyl-1,4-dihydropyridine fumarate] | 7.60 | -23 | -30 | -21 | Mean arterial pressure after treatment, Δ mm Hg, 4 h ([3]; 2.0 mg/kg): -22 mm Hg; Mean arterial pressure after treatment, Δ mm Hg, 7 h ([3]; 2.0 mg/kg): -32 mm Hg |
| COC(=O)C1=C(C)NC(COCCOCCN)=C(C(=O)OC(C)C)C1c1cccc(C(F)(F)F)c1Cl (racemic) [EXAMPLE 35, (4R,S)-2-{[2-(2-Aminoethoxy)ethoxy]methyl}-4-(2-chloro-3-trifluoromethylphenyl)-3-isopropoxycarbonyl-5-methoxycarbonyl-6-methyl-1,4-dihydropyridine tartrate] | 7.68 | – | – | – | – |
| COC(=O)C1=C(C)NC(COCCOCCN)=C(C(=O)OCCCC(C2CC2)C2CC2)C1c1cccc(C(F)(F)F)c1Cl (racemic) [EXAMPLE 36, (4R,S)-2-{[2-(2-Aminoethoxy)ethoxy]methyl}-4-(2-chloro-3-trifluoromethylphenyl)-3-(4,4-dicyclopropylbutyloxycarbonyl)-5-methoxycarbonyl-6-methyl-1,4-dihydropyridine fumarate] | 6.33 | – | – | – | – |
| COC(=O)C1=C(C)NC(COCCOCCN)=C(C(=O)OCC(C)C)C1c1cccc(C(F)(F)F)c1Cl (racemic) [EXAMPLE 38, (4R,S)-2-{[2-(2-Aminoethoxy)ethoxy]methyl}-4-(2-chloro-3-trifluoromethylphenyl)-3-isobutyloxycarbonyl-5-methoxycarbonyl-6-methyl-1,4-dihydropyridine fumarate] | 7.21 | – | – | – | – |
| C=C(C)COC(=O)C1=C(COCCOCCN)NC(C)=C(C(=O)OC)C1c1cccc(Cl)c1Cl (racemic) [EXAMPLE 39, (4R,S)-2-{[2-(2-Aminoethoxy)ethoxy]methyl}-4-(2,3-dichlorophenyl)-3-[(2-methyl-2-propenyl)oxycarbonyl]-5-methoxycarbonyl-6-methyl-1,4-dihydropyridine fumarate] | 7.10 | – | – | – | – |
| CCOC(=O)C1=C(COCCN)NC(C)=C(C(=O)OC)C1c1ccccc1Cl (centres unmarked) [AMLODIPINE, amlodipine, reference compound] | – | -47 | -46 | -13 | Mean arterial pressure after treatment, Δ mm Hg, 4 h ([3]; 0.5 mg/kg): -28 mm Hg; Mean arterial pressure after treatment, Δ mm Hg, 7 h ([3]; 0.5 mg/kg): -20 mm Hg; Mean arterial pressure after treatment, Δ mm Hg, 24 h ([3]; 0.5 mg/kg): -10 mm Hg; Mean arterial pressure after treatment, Δ mm Hg, 4 h ([3]; 1.0 mg/kg): -45 mm Hg; Mean arterial pressure after treatment, Δ mm Hg, 7 h ([3]; 1.0 mg/kg): -39 mm Hg; Mean arterial pressure after treatment, Δ mm Hg, 24 h ([3]; 1.0 mg/kg): -29 mm Hg; Systolic arterial pressure Δ(mm Hg) 24 h after the last administration of the products, D1 ([4]; day 1): -9 mm Hg; Systolic arterial pressure Δ(mm Hg) 24 h after the last administration of the products, D2 ([4]; day 2): -8 mm Hg; Systolic arterial pressure Δ(mm Hg) 24 h after the last administration of the products, D3 ([4]; day 3): -14 mm Hg; Systolic arterial pressure Δ(mm Hg) 24 h after the last administration of the products, D4 ([4]; day 4): -14 mm Hg; Systolic arterial pressure Δ(mm Hg) 24 h after the last administration of the products, D7 ([4]; day 7): -9 mm Hg |
| COC(=O)C1=C(C)NC(COCCOCCN)=C(C(=O)OC/C=C/C(C2CC2)C2CC2)C1c1cccc(Cl)c1Cl [EXAMPLE 29, (4R,S)-2-{[2-(2-Aminoethoxy)ethoxy]methyl}-4-(2,3-dichlorophenyl)-3-{[(E)-4,4-dicyclopropyl-2-butene]-oxycarbonyl}-5-methoxycarbonyl-6-methyl-1,4-dihydropyridine tartrate] | 7.12 | – | – | – | – |
| COC(=O)C1=C(C)NC(COCCOCCN)=C(C(=O)OC/C=C/C(C2CC2)C2CC2)C1c1cccc(C(F)(F)F)c1Cl [EXAMPLE 37, (4R,S)-2-{[2-(2-Aminoethoxy)ethoxy]methyl}-4-(2-chloro-3-trifluoromethylphenyl)-3-{[(E)-4,4-dicyclopropyl-2-butene]oxycarbonyl}-5-methoxycarbonyl-6-methyl-1,4-dihydropyridine fumarate] | 6.46 | – | – | – | – |
| COC(=O)C1=C(C)NC(C)=C(C(=O)OC)C1c1ccccc1[N+](=O)[O-] [NIFEDIPINE, nifedipine, reference compound] | – | -19 | -25 | – | – |
